≈ marks a conversion by molar mass, not a printed value. Like-named read-outs stand apart in the source and are kept apart here.
Legend:
[1] = test system: KRAS G12V-dependent Ba/F3 cells; test: Ba/F3 proliferation assay, KRAS G12V; format: cell-based; conditions: AlamarBlue;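 further: proliferation IC50 in KRAS G12V-dependent Ba/F3 cells read by AlamarBlue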
How it was run: (§1)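 IL-3-independent Ba/F3 lines driven by transduced KRAS G12C, G12D or G12V, with puromycin withdrawn about ten days before testing. Viability after compound treatment measured by AlamarBlue fluorescence in duplicate, and values derived by curve fitting.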

[2] = Solubility measurement (DMSO solution method), McIlvaine buffer pH 4.5 or 6.8; format: physicochemical; conditions: DMSO stock diluted to 250 μM, 24 h shaking at ambient temperature; for solubility at 24 h: aqueous buffer, kinetic from dmso stock
How it was run: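 Filtrate concentration by LC-UV, calibrated to a known-concentration reference dissolved completely in acetonitrile/water (1:1). Samples came from 250 µM final dilutions of DMSO stock in pH 4.5 or 6.8 McIlvaine buffer, shaken 24 h at ambient temperature, then filtered.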

SK-CO-1 cells = test: SK-CO-1 CTG proliferation assay (120 h) (CRC, G12V); format: cell-based; conditions: SK-CO-1 cells (CRC, G12V), CTG 120 h
How it was run: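 Compound exposure lasted 120 h in KRAS G12V SK-CO-1 cells seeded overnight at 500 cells/well in 10% FCS EMEM. CellTiter-Glo RLU normalised to DMSO wells gave percent viability, and a four-parameter model fit yielded IC50.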

[3] = test system: KRAS G12C-dependent Ba/F3 cells; test: Ba/F3 proliferation assay, KRAS G12C; format: cell-based; conditions: AlamarBlue
How it was run: as §1

[4] = McIlvaine buffer pH 4.5, read-out: solubility pH 4.5
[5] = McIlvaine buffer pH 6.8, read-out: solubility pH 6.8

| SMILES | IC50 ([1]; Mus musculus, BaF3, 72 h) [µM] | solubility at 24 h [2, 4] [µg/mL] | solubility at 24 h [2, 5] [µg/mL] | IC50 (SK-CO-1 cells; Homo sapiens) [µM] | IC50 ([3]; Mus musculus, BaF3, 72 h) [µM] | IC50 ([1]; 72 h) [µM] | solubility pH 4.5 ([2]; McIlvaine buffer pH 4.5) [μg/ml] | solubility pH 6.8 ([2]; McIlvaine buffer pH 6.8) [μg/ml] | IC50 (SK-CO-1 cells) [µM] | IC50 ([3]; 72 h) [µM] |
| --- | --- | --- | --- | --- | --- | --- | --- | --- | --- | --- |
| COc1c(O[C@@H](C)[C@@H]2CCCN2C)nc(-c2noc3c2CCC[C@@]32CCCc3sc(N)c(C#N)c32)nc1-n1ccc(C(N)=O)n1 [II-159] | 0.093 | 125 (≈ 198 µM) | 125 (≈ 198 µM) | 0.131 | 0.147 | – | – | – | – | – |
| C[C@H](Oc1cc(-n2cc3c(n2)CNC3)nc(-c2noc3c2CCC[C@@]32CCCc3sc(N)c(C#N)c32)n1)[C@@H]1CCCN1C [II-168] | 0.026 | > 139 | > 128 | 0.154 | 0.062 | – | – | – | – | – |
| CC(C)N1CCCN(c2cc(-n3ccnc3)nc(-c3noc4c3CCC[C@@]43CCCc4sc(N)c(C#N)c43)n2)[C@@H](C)C1 [II-169] | 0.061 | > 124 | 13 (≈ 22.3 µM) | 0.316 | 0.107 | – | – | – | – | – |
| CC(C)N1CCCN(c2cc(-c3ccn(C)n3)nc(-c3noc4c3CCC[C@@]43CCCc4sc(N)c(C#N)c43)n2)[C@@H](C)C1 [II-170] | 0.017 | 118 (≈ 197 µM) | 24 (≈ 40.1 µM) | 0.121 | 0.026 | – | – | – | – | – |
| C[C@H](Oc1cc(N2C[C@H](C)N(C)[C@@H](C)C2)nc(-c2noc3c2CCC[C@@]32CCCc3sc(N)c(C#N)c32)n1)[C@@H]1CCCN1C [II-173] | 0.678 | > 144 | > 146 | 0.805 | 0.296 | – | – | – | – | – |
| C[C@H](Oc1cc(-n2cc3c(n2)CN(C)C3)nc(-c2noc3c2CCC[C@@]32CCCc3sc(N)c(C#N)c32)n1)[C@@H]1CCCN1C [II-174] | 0.071 | > 149 | 115 (≈ 188 µM) | 0.385 | 0.103 | – | – | – | – | – |
| CC(C)NC(=O)Cc1ccn(-c2cc(O[C@@H](C)[C@@H]3CCCN3C)nc(-c3noc4c3CCC[C@@]43CCCc4sc(N)c(C#N)c43)n2)n1 [II-182] | 0.003 | > 148 | 86 (≈ 131 µM) | 0.009 | 0.005 | – | – | – | – | – |
| CO[C@H]1CCN(C)[C@@H]1[C@H](C)Oc1cc(-n2ccc(CC(=O)NC(C)C)n2)nc(-c2noc3c2CCC[C@@]32CCCc3sc(N)c(C#N)c32)n1 [II-183] | 0.003 | 113 (≈ 165 µM) | 4 (≈ 5.83 µM) | 0.007 | 0.002 | – | – | – | – | – |
| CO[C@H]1CCN(C)[C@@H]1[C@H](C)Oc1cc(N2CCN(C)C3(CC3)C2)nc(-c2noc3c2CCC[C@@]32CCCc3sc(N)c(C#N)c32)n1 [II-186] | 0.321 | > 140 | 22 (≈ 34.1 µM) | 0.88 | 0.192 | – | – | – | – | – |
| C[C@H](Oc1cc(-n2ccc(C3(O)COC3)n2)nc(-c2noc3c2CCC[C@@]32CCCc3sc(N)c(C#N)c32)n1)[C@@H]1CCCN1C [II-189] | 0.008 | > 152 | 103 (≈ 164 µM) | 0.045 | 0.009 | – | – | – | – | – |
| C[C@H](Oc1cc(-n2ccc(C(=O)N[C@@H]3CCOC3)n2)nc(-c2noc3c2CCC[C@@]32CCCc3sc(N)c(C#N)c32)n1)[C@@H]1CCCN1C [II-192] | 0.002 | 124 (≈ 185 µM) | 59 (≈ 88.1 µM) | 0.004 | 0.002 | – | – | – | – | – |
| C[C@H](Oc1cc(-n2ccc(C(=O)N[C@H]3CCOC3)n2)nc(-c2noc3c2CCC[C@@]32CCCc3sc(N)c(C#N)c32)n1)[C@@H]1CCCN1C [II-193] | – | – | – | – | – | 0.002 | 15 | <1 | 0.003 | 0.002 |
| C[C@H](Oc1cc(-n2ccc(C(=O)N(C)C3COC3)n2)nc(-c2noc3c2CCC[C@@]32CCCc3sc(N)c(C#N)c32)n1)[C@@H]1CCCN1C [II-194] | 0.004 | 116 (≈ 173 µM) | 31 (≈ 46.3 µM) | 0.011 | 0.004 | – | – | – | – | – |
| COCCNC(=O)c1ccn(-c2cc(O[C@@H](C)[C@@H]3CCCN3C)nc(-c3noc4c3CCC[C@@]43CCCc4sc(N)c(C#N)c43)n2)n1 [II-195] | 0.002 | 131 (≈ 199 µM) | 71 (≈ 108 µM) | 0.004 | 0.002 | – | – | – | – | – |

Continued, in another order:

| IC50 ([1]; Mus musculus, BaF3, 72 h) [µM] | solubility at 24 h [2, 4] [µg/mL] | solubility at 24 h [2, 5] [µg/mL] | IC50 (SK-CO-1 cells; Homo sapiens) [µM] | IC50 ([3]; Mus musculus, BaF3, 72 h) [µM] | SMILES | IC50 ([1]; 72 h) [µM] | solubility pH 4.5 ([2]; McIlvaine buffer pH 4.5) [μg/ml] | solubility pH 6.8 ([2]; McIlvaine buffer pH 6.8) [μg/ml] | IC50 (SK-CO-1 cells) [µM] | IC50 ([3]; 72 h) [µM] |
| --- | --- | --- | --- | --- | --- | --- | --- | --- | --- | --- |
| 0.135 | > 144 | 17 (≈ 27.6 µM) | 2.12 | 0.245 | C[C@H](Oc1cc(-n2cc3c(n2)CNC3)nc(-c2noc3c2CCC[C@@]32CCCc3sc(N)c(C#N)c32)n1)[C@@H]1C[C@@H](F)CN1C [II-154] | – | – | – | – | – |
| 0.185 | > 153 | 3 (≈ 4.71 µM) | 0.263 | 0.169 | C[C@H](Oc1nc(-c2noc3c2CCC[C@@]32CCCc3sc(N)c(C#N)c32)nc(N2CCNC3(CC3)C2)c1F)[C@@H]1C[C@@H](F)CN1C [II-155] | – | – | – | – | – |
| 0.271 | > 142 | < 1 | 0.39 | 0.353 | C[C@H](Oc1nc(-c2noc3c2CCC[C@@]32CCCc3sc(N)c(C#N)c32)nc(N2CCNC3(CC3)C2)c1Cl)[C@@H]1C[C@@H](F)CN1C [II-156] | – | – | – | – | – |
| 0.258 | > 147 | < 1 | 0.339 | 0.244 | C[C@H](Oc1nc(-c2noc3c2CCC[C@@]32CCCc3sc(N)c(C#N)c32)nc(N2C[C@H](C)NC3(CC3)C2)c1F)[C@@H]1C[C@@H](F)CN1C [II-157] | – | – | – | – | – |
| 0.108 | > 150 | < 1 | 0.374 | 0.135 | C[C@@H]1CN(c2nc(-c3noc4c3CCC[C@@]43CCCc4sc(N)c(C#N)c43)nc(O[C@@H](C)[C@@H]3C[C@@H](F)CN3C)c2F)CC2(CC2)N1 [II-158] | – | – | – | – | – |
| 0.574 | > 140 | > 137 | 0.98 | 0.526 | C[C@H](Oc1cc(N2CCN[C@@H](C)C2)nc(-c2noc3c2CCC[C@@]32CCCc3sc(N)c(C#N)c32)n1)[C@@H]1CCCN1C [II-162] | – | – | – | – | – |
| 0.322 | > 137 | > 133 | 0.649 | 0.373 | C[C@H](Oc1cc([C@H]2CCNC2)nc(-c2noc3c2CCC[C@@]32CCCc3sc(N)c(C#N)c32)n1)[C@@H]1CCCN1C [II-163] | – | – | – | – | – |
| 0.133 | > 164 | > 137 | 0.287 | 0.24 | C[C@H](Oc1cc(C2=CCNCC2)nc(-c2noc3c2CCC[C@@]32CCCc3sc(N)c(C#N)c32)n1)[C@@H]1CCCN1C [II-164] | – | – | – | – | – |
| 0.121 | > 142 | 49 (≈ 79.2 µM) | 0.529 | 0.109 | C[C@H](Oc1cc(N2CCNC3(CC3)C2)nc(-c2noc3c2CCC[C@@]32CCCc3sc(N)c(C#N)c32)n1)[C@@H]1C[C@@H](F)CN1C [II-165] | – | – | – | – | – |
| 0.43 | > 152 | > 147 | 0.551 | 0.386 | CC(C)[C@@H]1CN(c2cc(O[C@@H](C)[C@@H]3CCCN3C)nc(-c3noc4c3CCC[C@@]43CCCc4sc(N)c(C#N)c43)n2)CCN1 [II-166] | – | – | – | – | – |
| 0.879 | > 153 | > 142 | 1.34 | 0.884 | C[C@H](Oc1cc(N2C[C@@H]3[C@@H](N)[C@@H]3C2)nc(-c2noc3c2CCC[C@@]32CCCc3sc(N)c(C#N)c32)n1)[C@@H]1CCCN1C [II-167] | – | – | – | – | – |
| 0.426 | > 150 | > 148 | 1.53 | 0.232 | C[C@H](Oc1cc(N2CCN(C)C3(CC3)C2)nc(-c2noc3c2CCC[C@@]32CCCc3sc(N)c(C#N)c32)n1)[C@@H]1CCCN1C [II-171] | – | – | – | – | – |
| 1.21 | > 140 | < 1 | 2.06 | 1.31 | C[C@H](Oc1nc(-c2noc3c2CCC[C@@]32CCCc3sc(N)c(C#N)c32)nc(N2CCN(C)C3(CC3)C2)c1Cl)[C@@H]1C[C@@H](F)CN1C [II-176] | – | – | – | – | – |
| 0.032 | 127 (≈ 198 µM) | 110 (≈ 171 µM) | 0.149 | 0.031 | CC(=O)N1CCN(c2cc(O[C@@H](C)[C@@H]3CCCN3C)nc(-c3noc4c3CCC[C@@]43CCCc4sc(N)c(C#N)c43)n2)CC12CC2 [II-178] | – | – | – | – | – |
| 0.155 | > 158 | > 147 | 0.249 | 0.098 | CO[C@H]1CCN(C)[C@@H]1[C@H](C)Oc1cc(N2CCNC3(CC3)C2)nc(-c2noc3c2CCC[C@@]32CCCc3sc(N)c(C#N)c32)n1 [II-184] | – | – | – | – | – |
| 0.334 | > 147 | 8 (≈ 12.4 µM) | 1.29 | 0.305 | CCN1CCN(c2cc(O[C@@H](C)[C@@H]3C[C@@H](F)CN3C)nc(-c3noc4c3CCC[C@@]43CCCc4sc(N)c(C#N)c43)n2)CC12CC2 [II-185] | – | – | – | – | – |
| 0.225 | > 140 | 119 (≈ 189 µM) | 0.457 | 0.133 | CO[C@@H]1C[C@@H]([C@H](C)Oc2cc(N3CCNC4(CC4)C3)nc(-c3noc4c3CCC[C@@]43CCCc4sc(N)c(C#N)c43)n2)N(C)C1 [II-187] | – | – | – | – | – |

Source: US20240174690A1, “ANNULATED 2-AMINO-3-CYANO THIOPHENES AND DERIVATIVES FOR THE TREATMENT OF CANCER” (BOEHRINGER INGELHEIM INTERNATIONAL GMBH, priority 2021, published 2024)
